≈ marks a conversion by molar mass, not a printed value.
These compounds were tested on HSV type 1 (HSV-1) strain VR-3 (assay: anti-HSV activity: inhibition of cytopathic effect (CPE), HSV-1). Conditions: Human alphaherpesvirus 1; HSV-1 strain VR-3, 100-320 TCID50; human embryonic lung cells; 37° C., 2 to 3 days; read-out: MIC HSV-1 (minimum concentration at which the CPE is inhibited at least by 50%).
Assay type: cell-based
Experimental: (§1) A. Human embryonic lung cells are subcultivated in Eagle's MEM supplemented with 10% semi-fetal calf serum.
(§2) B. The cells thus subcultivated are used as a parent culture. A cell suspension obtained from the parent culture by dividing it at 1:2 split is seeded into 96 microwells in an amount of 150 μl/well and incubated in a CO2 -incubator at 37° C. for 4 to 5 days.
(§3) C. The culture field is discarded, and 100- to 320-50% tissue culture infective doses (100-320 TCID50) of HSV type 1 (HSV-1) strain VR-3 or HSV type 2 (HSV-2) strain MS is inoculated. After incubation at 37° C. for 1 hour, the virus fluid is discarded, 150 μl of Eagle's MEM supplemented with 2.5% semi-fetal calf serum and containing an appropriate amount of each test compound is added, and cultivation is carried out at 37° C. Each of the test compounds is usually diluted in the range of from 100 to 1 μg/ml by serial 0.5 log10 decrements.
(§4) D. After cultivation for 2 to 3 days, the degree of the cytopathic effect (CPE) caused by the viral infection in each of the wells is observed microscopically. At the time when the control cultures, in which the test compound is absent, have shown complete CPE by the viral infection, the degree of CPE in each well is rated from 0 to 4.
(§5) E. The minimum concentration at which the CPE is inhibited at least by 50% (indicated by the CPE score not exceeding 2) is defined as the minimum inhibitory concentration (MIC) of the test compound.
`C=C1[C@H](n2ccc(N)nc2=O)O[C@H](CO)[C@H]1O` [NH2 H H H, 2'-methylidene-2'-deoxycytidine] was tested, and the MIC was 1 µg/mL (≈ 4.18 µM). In the case of `C=C1[C@H](n2cc(Br)c(=O)[nH]c2=O)O[C@H](CO)[C@H]1O` [OH Br H H, 2'-methylidene-2'-deoxy-5-bromouridine], the MIC is reported as 3.2 µg/mL (≈ 10 µM). With `CC=C1[C@H](n2cc(C)c(=O)[nH]c2=O)O[C@H](CO)[C@H]1O` [OH CH3 CH3 H, 2'-ethylidenethymidine] the MIC was 10 µg/mL (≈ 37.3 µM). `C=C1[C@H](n2cc(C)c(=O)[nH]c2=O)O[C@H](CO)[C@H]1O` [OH CH3 H H, 2'-methylidenethymidine] gave an MIC of 1 µg/mL (≈ 3.93 µM). `C=C1[C@H](n2cc(Cl)c(=O)[nH]c2=O)O[C@H](CO)[C@H]1O` [OH Cl H H, 2'-methylidene-2'-deoxy-5-chlorouridine] showed an MIC of 10 µg/mL (≈ 36.4 µM). `C=C1[C@H](n2cc(I)c(=O)[nH]c2=O)O[C@H](CO)[C@H]1O` [OH I H H, 2'-methylidene-2'-deoxy-5-iodouridine] was tested, and the MIC was 1 µg/mL (≈ 2.73 µM).

Each compound was assayed on HSV type 2 (HSV-2) strain MS (assay: anti-HSV activity: inhibition of cytopathic effect (CPE), HSV-2). Conditions: Human alphaherpesvirus 2, 100-320 TCID50, human embryonic lung cells, 37° C., 2 to 3 days, read-out: MIC HSV-2 (minimum concentration at which the CPE is inhibited at least by 50%).
Assay type: cell-based
Experimental: as §1, §2, §3, §4, §5
In the case of `C=C1[C@H](n2ccc(N)nc2=O)O[C@H](CO)[C@H]1O` [NH2 H H H, 2'-methylidene-2'-deoxycytidine], the MIC is reported as 1 µg/mL (≈ 4.18 µM). With `C=C1[C@H](n2cc(Br)c(=O)[nH]c2=O)O[C@H](CO)[C@H]1O` [OH Br H H, 2'-methylidene-2'-deoxy-5-bromouridine] the MIC was 3.2 µg/mL (≈ 10 µM). Compound `CC=C1[C@H](n2cc(C)c(=O)[nH]c2=O)O[C@H](CO)[C@H]1O` [OH CH3 CH3 H, 2'-ethylidenethymidine] has an MIC of 32 µg/mL (≈ 119 µM). `C=C1[C@H](n2cc(C)c(=O)[nH]c2=O)O[C@H](CO)[C@H]1O` [OH CH3 H H, 2'-methylidenethymidine] was tested, and the MIC was 1 µg/mL (≈ 3.93 µM). `C=C1[C@H](n2cc(Cl)c(=O)[nH]c2=O)O[C@H](CO)[C@H]1O` [OH Cl H H, 2'-methylidene-2'-deoxy-5-chlorouridine] was tested, and the MIC was 10 µg/mL (≈ 36.4 µM). `C=C1[C@H](n2cc(I)c(=O)[nH]c2=O)O[C@H](CO)[C@H]1O` [OH I H H, 2'-methylidene-2'-deoxy-5-iodouridine] was tested, and the MIC was 1 µg/mL (≈ 2.73 µM).

The compounds below were run on CMV strain AD 169 (assay: anti-CMV activity: inhibition of plaque formation). Conditions: Human betaherpesvirus 5; CMV strain AD 169, about 50 plaque forming units; human embryonic lung cells; 37° C., 4 to 6 days; read-out: MIC CMV (minimum concentration at which the plaque formation is inhibited at least by 50%).
Assay type: cell-based, cytomegalovirus (CMV)
Experimental: as §1
B. The cells thus subcultivated are used as a parent culture. A cell suspension obtained from the parent culture by dividing it at 1:2 split is seeded into 24 semi-microwells in an amount of 150 μl/well and incubated in a CO2 -incubator at 37° C. for 4 to 5 days.
C. The culture fluid is discarded, and about 50 plaque forming units of CMV strain AD 169 is inoculated. After incubation at 37° C. for 1 hour, 400 μl of Eagle's MEM supplemented with 2.5% semi-fetal calf serum and containing an appropriate amount of each test compound is added, and cultivation is carried out at 37° C. Each of the test compounds is usually diluted in the range of from 100 to 1 μg/ml by serial 0.5 log10 decrements.
D. After cultivation for 4 to 6 days, infected cells are stained with a 0.5% Crystal Violet solution, and the number of plaques formed is counted under the microscope.
E. The minimum concentration at which the plaque formation is inhibited at least by 50%, based on the number of plaques formed in the control cultures in which the test compound is absent, is defined as the minimum inhibitory concentration (MIC) of the test compound.
Compound `C=C1[C@H](n2ccc(N)nc2=O)O[C@H](CO)[C@H]1O` [NH2 H H H, 2'-methylidene-2'-deoxycytidine] has an MIC of 0.1 µg/mL (≈ 0.418 µM). For `C=C1[C@H](n2cc(C)c(=O)[nH]c2=O)O[C@H](CO)[C@H]1O` [OH CH3 H H, 2'-methylidenethymidine], the MIC was 5.6 µg/mL (≈ 22 µM).

From patent US5047520A, “2'-alkylidenepyrimidine nucleoside derivatives, process for production thereof, and uses thereof” (Yamasa Shoyu Kabushiki Kaisha, priority 1987, dated 1991)
